Laboratory results as given in US20240197588A1, “ANTIMICROBIAL COMPOSITION” (Conopco, Inc., d/b/a UNILEVER, priority 2021, published 2024).

Key:
[1] = Physical state of detackifying agent at room temperature; type: physicochemical
Description: RT in Table 4 refers to room temperature.

[2] = Solubility of oil (detackifying agent) in 75/25 EtOH/Water; conditions: neat detackifying agent
Description: (§1) Detackifying agents desirable for use in the antimicrobial composition disclosed herein must meet the following criteria: the detackifying agent must be liquid, the detackifying agent must be soluble in at least a 75/25 or higher ratio of ethanol to water (EtOH/Water), which is to be reflective of solubility in the final composition resulting in a clear (i.e., transparent) final antimicrobial composition, and the detackifying agent must have no solvency for water.

[3] = Water solubility in oil (solvency of detackifying agent for water); conditions: neat detackifying agent
Description: as §1
Finally, the preferred detackifying agent must itself not have solvency for water such that during application and on drying as the ethanol and water evaporate, the water is also allowed to quickly evaporate leaving behind only the oil and any skin benefit actives/moisturizers if present.

Compound	Oil (liquid or solid at RT) [1]	Solubility in 75/25 EtOH/Water [2]	Water solubility in detackifying agent [3]
CCCCC(CC)COC(=O)CC(O)C(=O)OCC(CC)CCCC (stereo not shown) [Diethyl hexyl malate]	Liquid	–	–
CCCCC(CC)COC(=O)CCCCC(=O)OCC(CC)CCCC (stereo not shown) [Diethylhexyl adipate]	Liquid	<10%	No
CC(C)CCCCCCCCCCCCCCCO [Isostearyl alcohol]	Liquid	–	–
CCCCCCCCCCCCOC(=O)C(C)O (stereo not shown) [Lauryl lactate]	Liquid	>30%	No
Dicapryl maleate	Liquid	<10%	No

Now from value to compound:

Oil (liquid or solid at RT) [1]	Solubility in 75/25 EtOH/Water [2]	Water solubility in detackifying agent [3]	Compound
Liquid	–	–	CCCCC(CC)COC(=O)CCCCCCCCC(=O)OCC(CC)CCCC (stereo not shown) [Diethyl hexyl sebacate]
Liquid	–	–	CC(C)OC(=O)CCCCCCCCC(=O)OC(C)C [Diisopropyl sebacate]
Liquid	>30%	No	CC(C)OC(=O)CCCCC(=O)OC(C)C [Disopropyl adipate]
Liquid	>30%	No	PPG15 Stearyl ether
